According to patent US20090311237A1, “Combination therapy using a soluble hyaluronidase and a bisphosphonate” (priority 2008, published 2009):
Read-outs that look alike come from different tables or passages of the source.

Assay: Pharmacokinetics of ZA in pig serum after IV or SC infusion with or without rHuPH20 (LC-MS-MS, non-compartmental analysis)
Type: in vivo
Conditions: female, Yorkshire, pig, serum, […]
Procedure: A pharmacokinetic study of zoledronic acid (ZA) co-administered with rHuPH20 in female Yorkshire swines was conducted. The primary objective of the study was to determine the bioavailability of zoledronic acid dosed via subcutaneous (SC) co-administration with human recombinant hyaluronidase PH20 (rHuPH20) and to compare the overall exposure to an equivalent IV dose.
Animals in Study Group 1 were dosed with 0.15 mg/kg ZA given via a 20-minute IV infusion. Animals in Study Groups 2 and 3 were dosed subcutaneously (SC) with 0.15 mg/kg ZA without and with rHuPH20, respectively, in different SC delivery volumes.
Following ZA dose administration, serial blood samples were collected via vascular access ports (VAPs) for serum preparation and determination of ZA concentrations. Blood collection times were at 1, 3, 5, 10, 15, 20, 30, 45, and 60 minutes, and at 1.5, 2, 3, 4, 6, 8, 10, 24, 48, and 72 hours post dose. Urine samples were also collected to compare excretion characteristics between IV and SC routes of administration. Collection times for urine were at 15 minutes before dosing (−15 min.), continuously from dose initiation to 2 hours post dose, and at 4, 6, 8, and 24 hours post dose thereafter.
Serum concentration of ZA was determined using a qualified LC-MS-MS assay after derivatization with diazomethane (Zhu, L S et al. (2006) Rapid Commun. Mass Spectrom. 20: 3421-3426; “Qualification Data of An LC-MS/MS Method for the Determination of Zoledronate in Porcine Serum”, MDS Pharma Services Study No. AA43671-01, Report Date 14 Sep. 2007). The assay range was from 2.0 to 400 ng/mL with a lower limit of quantitation (LLOQ) at 2.0 ng/mL. Urine concentration of ZA was determined by a similar well qualified LC-MS-MS method (“Qualification Data of An LC-MS/MS Method for the Determination of Zoledronate in Porcine Urine”, MDS Pharma Services Study No. AA43671-02, Report Date 14 Sep. 2007) with an assay LLOQ at 10 ng/mL.
Pharmacokinetic (PK) analyses of ZA serum concentration versus time data were conducted using WinNonlin v5.1 (Pharsight, Mountain View, Calif.). Non-compartmental analysis was used for derivation of primary and secondary pharmacokinetic (PK) parameters. AUC, Cmax, and Tmax were compared between dose routes, between co-administration with rHuPH20, and with dose of rHuPH20.

[1] = intravenous, animal ID 61, Study Group 1, IV 20 min infusion, ZA […], rHuPH20 0 U/mL, read-out: Zoledronic Acid Serum Concentration
[2] = intravenous, animal ID 67, Study Group 1, IV 20 min infusion, ZA […], rHuPH20 0 U/mL, read-out: Zoledronic Acid Serum Concentration

`O=P(O)(O)C(O)(Cn1ccnc1)P(=O)(O)O` [ZA, 1-hydroxy-2-(1H-imidazol-1-yl)ethylidene-1,1-bisphosphonic acid] showed a concentration at 2 h [1] of 18.8 ng/mL, a concentration at 3 h [1] of 6.1 ng/mL and a concentration at 4 h [1] of 3.3 ng/mL. The concentration at 0.05 h (intravenous, animal ID 67, Study Group 1, IV 20 min infusion, ZA […], rHuPH20 0 U/mL, time 0.05 h, read-out: Zoledronic Acid Serum Concentration) was 288 ng/mL, the concentration at 0.333 h (intravenous, animal ID 67, Study Group 1, IV 20 min infusion, ZA […], rHuPH20 0 U/mL, time 0.333 h, read-out: Zoledronic Acid Serum Concentration) was 556 ng/mL and the concentration at 0.5 h (intravenous, animal ID 67, Study Group 1, IV 20 min infusion, ZA […], rHuPH20 0 U/mL, time 0.5 h, read-out: Zoledronic Acid Serum Concentration) was 246 ng/mL. The concentration at 1 h (intravenous, animal ID 67, Study Group 1, IV 20 min infusion, ZA […], rHuPH20 0 U/mL, time 1 h, read-out: Zoledronic Acid Serum Concentration) was 77.8 ng/mL, the concentration at 2 h [2] was 16.6 ng/mL and the concentration at 3 h [2] was 6.67 ng/mL. For the same compound, the concentration at 4 h [2] was 3.35 ng/mL, the clearance (iv, absolute clearance by non-compartmental analysis of the IV dose (from Table 13), used for Study Groups 2 and 3, read-out: Serum CL (converted)) was 7.34 mL/min/kg and the clearance (iv, ZA […] 20-min IV infusion, individual pigs 57, 61, 67, read-out: CL (converted)) was 6.76 mL/min/kg. The Tmax (iv, ZA […] 20-min IV infusion, individual pigs 57, 61, 67, read-out: Tmax) was 15 min, the half-life (iv, ZA […] 20-min IV infusion, individual pigs 57, 61, 67, read-out: T½ λz (converted)) was 37.8 min and the Vd (iv, ZA […] 20-min IV infusion, individual pigs 57, 61, 67, read-out: Vss) was 0.104 L/kg. For the same compound, the Vd (iv, ZA […] 20-min IV infusion, individual pigs 57, 61, 67, read-out: Vz) was 0.371 L/kg, the clearance (iv, ZA […] 20-min IV infusion, n=3, read-out: CL, mean (converted)) was 7.34 mL/min/kg and the clearance (iv, ZA […] 20-min IV infusion, n=3, read-out: CL, median (converted)) was 7.36 mL/min/kg. For the same compound, the Tmax (iv, ZA […] 20-min IV infusion, n=3, read-out: Tmax, mean) was 15 min, the Tmax (iv, ZA […] 20-min IV infusion, n=3, read-out: Tmax, median) was 15 min and the half-life (iv, ZA […] 20-min IV infusion, n=3, read-out: T½ λz, mean (converted)) was 43.2 ± 4.8 min. It also gave a half-life (iv, ZA […] 20-min IV infusion, n=3, read-out: T½ λz, median (converted)) of 44.4 min, a Vd (iv, ZA […] 20-min IV infusion, n=3, read-out: Vss, mean) of 0.123 L/kg and a Vd (iv, ZA […] 20-min IV infusion, n=3, read-out: Vss, median) of 0.131 L/kg. The Vd (iv, ZA […] 20-min IV infusion, n=3, read-out: Vz, mean) was 0.458 ± 0.0759 L/kg, the Vd (iv, ZA […] 20-min IV infusion, n=3, read-out: Vz, median) was 0.498 L/kg and the CL/F (sc, pig 59, SC ZA […], 100 mL over 16 min, no rHuPH20, read-out: CL/F (converted)) was 7.97 mL/min/kg. For the same compound, the Tmax (sc, pig 59, SC ZA […], 100 mL over 16 min, no rHuPH20, read-out: Tmax) was 20 min, the half-life (sc, pig 59, SC ZA […], 100 mL over 16 min, no rHuPH20, read-out: T½ λz (converted)) was 66 min and the Vd/F (sc, pig 59, SC ZA […], 100 mL over 16 min, no rHuPH20, read-out: Vss/F) was 0.617 L/kg. The Vd/F (sc, pig 59, SC ZA […], 100 mL over 16 min, no rHuPH20, read-out: Vz/F) was 0.76 L/kg, the CL/F (sc, pig 60, SC ZA […], 100 mL over 16 min, no rHuPH20, read-out: CL/F (converted)) was 6.97 mL/min/kg and the bioavailability (sc, pig 60, SC ZA […], 100 mL over 16 min, no rHuPH20, read-out: SC Bioavailability (0-1 h)) was 55.5%. It also gave a bioavailability (sc, pig 60, SC ZA […], 100 mL over 16 min, no rHuPH20, read-out: SC Bioavailability (0-8 h)) of 105%, a Tmax (sc, pig 60, SC ZA […], 100 mL over 16 min, no rHuPH20, read-out: Tmax) of 20 min and a half-life (sc, pig 60, SC ZA […], 100 mL over 16 min, no rHuPH20, read-out: T½ λz (converted)) of 52.2 min. For the same compound, the Vd/F (sc, pig 60, SC ZA […], 100 mL over 16 min, no rHuPH20, read-out: Vss/F) was 0.526 L/kg, the Vd/F (sc, pig 60, SC ZA […], 100 mL over 16 min, no rHuPH20, read-out: Vz/F) was 0.524 L/kg and the CL/F (sc, pig 62, SC ZA […], 50 mL over 8 min, no rHuPH20, read-out: CL/F (converted)) was 10.2 mL/min/kg. It also gave a bioavailability (sc, pig 62, SC ZA […], 50 mL over 8 min, no rHuPH20, read-out: SC Bioavailability (0-1 h)) of 54%, a bioavailability (sc, pig 62, SC ZA […], 50 mL over 8 min, no rHuPH20, read-out: SC Bioavailability (0-8 h)) of 71.9% and a Tmax (sc, pig 62, SC ZA […], 50 mL over 8 min, no rHuPH20, read-out: Tmax) of 10 min. The half-life (sc, pig 62, SC ZA […], 50 mL over 8 min, no rHuPH20, read-out: T½ λz (converted)) was 58.2 min, the Vd/F (sc, pig 62, SC ZA […], 50 mL over 8 min, no rHuPH20, read-out: Vss/F) was 0.634 L/kg and the Vd/F (sc, pig 62, SC ZA […], 50 mL over 8 min, no rHuPH20, read-out: Vz/F) was 0.852 L/kg. It also gave a CL/F (sc, pig 69, SC ZA […], 25 mL over 4 min, no rHuPH20, read-out: CL/F (converted)) of 9.28 mL/min/kg, a bioavailability (sc, pig 69, SC ZA […], 25 mL over 4 min, no rHuPH20, read-out: SC Bioavailability (0-1 h)) of 56.9% and a bioavailability (sc, pig 69, SC ZA […], 25 mL over 4 min, no rHuPH20, read-out: SC Bioavailability (0-8 h)) of 78.8%. The Tmax (sc, pig 69, SC ZA […], 25 mL over 4 min, no rHuPH20, read-out: Tmax) was 10 min, the half-life (sc, pig 69, SC ZA […], 25 mL over 4 min, no rHuPH20, read-out: T½ λz (converted)) was 60.6 min and the Vd/F (sc, pig 69, SC ZA […], 25 mL over 4 min, no rHuPH20, read-out: Vss/F) was 0.652 L/kg. It also gave a Vd/F (sc, pig 69, SC ZA […], 25 mL over 4 min, no rHuPH20, read-out: Vz/F) of 0.811 L/kg, a CL/F (sc, pig 70, SC ZA […], 10 mL over 1.6 min, no rHuPH20, read-out: CL/F (converted)) of 7.69 mL/min/kg and a bioavailability (sc, pig 70, SC ZA […], 10 mL over 1.6 min, no rHuPH20, read-out: SC Bioavailability (0-1 h)) of 66.5%. For the same compound, the bioavailability (sc, pig 70, SC ZA […], 10 mL over 1.6 min, no rHuPH20, read-out: SC Bioavailability (0-8 h)) was 95.1%, the Tmax (sc, pig 70, SC ZA […], 10 mL over 1.6 min, no rHuPH20, read-out: Tmax) was 10 min and the half-life (sc, pig 70, SC ZA […], 10 mL over 1.6 min, no rHuPH20, read-out: T½ λz (converted)) was 85.2 min. The Vd/F (sc, pig 70, SC ZA […], 10 mL over 1.6 min, no rHuPH20, read-out: Vss/F) was 0.615 L/kg, the Vd/F (sc, pig 70, SC ZA […], 10 mL over 1.6 min, no rHuPH20, read-out: Vz/F) was 0.947 L/kg and the CL/F (sc, SC ZA […], no rHuPH20 (Study Group 2), n=4, read-out: CL/F, mean (converted)) was 8.52 mL/min/kg. For the same compound, the CL/F (sc, SC ZA […], no rHuPH20 (Study Group 2), n=4, read-out: CL/F, median (converted)) was 8.48 mL/min/kg, the bioavailability (sc, SC ZA […], no rHuPH20 (Study Group 2), n=4, read-out: SC Bioavailability (0-1 h), mean) was 58.2% and the bioavailability (sc, SC ZA […], no rHuPH20 (Study Group 2), n=4, read-out: SC Bioavailability (0-1 h), median) was 56.2%.
